The text below walks through data of ChEMBL document CHEMBL5050843, “Amide substituted thiazoles as protein secretion inhibitors” (2019).

Format in all cases: functional, cell-based
A short description of experiment [1]: Inhibition of TNF-alpha-FL-Gluc secretion in doxycyclin-induced human Flp-In-T-REx-293 cells measured by Gaussia luciferase reporter gene method. On the technique in general: A reporter such as luciferase makes a cellular process visible.
Experiment [2] is described as follows: Inhibition of PD1ss-Gluc secretion in doxycyclin-induced human Flp-In-T-REx-293 cells measured by Gaussia luciferase reporter gene method.
Experiment [3] in a line: Inhibition of PR1ss-Gluc secretion in doxycyclin-induced human Flp-In-T-REx-293 cells measured by Gaussia luciferase reporter gene method.
A short description of experiment [4]: Inhibition of constitutively active VCAMss-Gluc secretion in human Flp-In-T-REx-293 cells measured by Gaussia luciferase reporter gene method.
Experiment [5] in a line: Inhibition of constitutively active PR1ss-Gluc secretion in human Flp-In-T-REx-293 cells measured by Gaussia luciferase reporter gene method.

Usually IC50 stands for the concentration that gives 50% inhibition. A lower IC50 goes with higher potency. As for `C[C@H](c1ccccc1Cl)n1cc(CC(=O)Nc2nc(C(C)(C)C)cs2)c2cc(Cl)ccc21`, the concentration for half-maximal inhibition (IC50) was greater than 25 µM in experiment [1], 4.16 µM in experiment [2] and greater than 25 µM in experiment [3].
Take `CC(C)OC(C)(C)c1csc(NC(=O)Cc2cn(Cc3ccccc3Cl)c3ccc(Cl)cc23)n1`: the IC50 is 14.8 µM in experiment [1], 0.715 µM in experiment [2] and greater than 25 µM in experiment [3].
For `CC(c1ccccc1Cl)n1cc(CC(=O)Nc2nc(C(C)(C)C)cs2)c2cc(Cl)ccc21` (stereo not given) the same measures were greater than 25 µM, 1.55 µM and greater than 25 µM.
With `CC(C)(C)c1csc(NC(=O)Cc2cn(-c3ccc(Cl)cc3)c3ccc(Cl)cc23)n1`, the half-maximal inhibitory concentration (IC50) in experiment [2] is 2.69 µM; in experiment [3], greater than 25 µM.
Turning to `CC(C)(C)Cc1csc(NC(=O)Cc2csc3ccc(Cl)cc23)n1`, the IC50 in experiment [4] was 2480 µM; in experiment [2], 6.99 µM; in experiment [5] it was greater than 25 µM; in experiment [3], greater than 25 µM.
For the compound `CC(C)(C)c1csc(NC(=O)Cc2cn(Cc3c(F)cccc3Cl)c3ccc(Cl)cc23)n1`, the results for the concentration for half-maximal inhibition (IC50) in experiment [1], in experiment [2] and in experiment [3] were greater than 25 µM, 6.33 µM and greater than 25 µM, respectively.
As for `Cc1cnccc1Cn1cc(CC(=O)Nc2nc(C(C)(C)C)cs2)c2cc(Cl)ccc21`, the figures for the IC50 in experiment [1], in experiment [2] and in experiment [3] were 19.1 µM, 2.68 µM and greater than 25 µM, respectively.
With `CC(C)(C)c1csc(NC(=O)Cc2cn(Cc3ccccc3)c3nc(Cl)ccc23)n1`, the half-maximal inhibitory concentration (IC50) in experiment [1] was greater than 25 µM; in experiment [2] it was 10 µM; in experiment [3] it was greater than 25 µM.
Turning to `CN[C@@H](Cc1cn(Cc2ccc(F)cc2)c2ccccc12)C(=O)Nc1nc(C(C)(C)C)cs1`, the IC50 in experiment [2] and in experiment [3] was greater than 25 µM in each case.
Take `CC(C)(C)c1csc(NC(=O)Cc2cn(Cc3ccccc3)c3ccc(C#N)cc23)n1`: the IC50 in experiment [2] is 6.06 µM; in experiment [3], greater than 25 µM.
Turning to `O=C(Nc1nc(C2CC2)cs1)c1cc2c(s1)CCCC2`, the IC50 is 11 µM in experiment [4] and greater than 80 µM in experiment [1].
As for `CC(C)(C)c1csc(NC(=O)Cc2cn(Cc3ccccc3S(C)(=O)=O)c3ccc(Cl)cc23)n1`, the half-maximal inhibitory concentration (IC50) in experiment [2] is 13.2 µM; in experiment [3], greater than 25 µM.
For `CC(C)(C)c1csc(NC(=O)c2cn(Cc3ccccc3)c3ccccc23)n1` the same measures were 7.05 µM and greater than 25 µM.
Consider `Cc1cc(C(=O)Nc2nc(C(C)(C)C)cs2)sc1-c1ccccc1`, for which the IC50 in experiment [4] came to 4.5 µM; in experiment [1], 31 µM.
As to `CC(C)(C)c1csc(NC(=O)c2cc(Br)c(Br)s2)n1`, the values for the IC50 in experiment [4] and in experiment [1] were 3.8 µM and 26 µM, respectively.
For `CC(C)(C)c1csc(NC(=O)c2cc3c(s2)CCC3)n1` the same measures were 1 µM and 18 µM.
As for `CC(C)(C)c1csc(NC(=O)Cc2cn(-c3cccc(Cl)c3)c3ccc(Cl)cc23)n1`, the IC50 in experiment [2] is 4.14 µM; in experiment [3] it was greater than 25 µM.
Consider `CC(C)c1csc(NC(=O)c2cc3c(s2)CCCC3)n1`, for which the IC50 in experiment [4] was 1.2 µM; in experiment [1], greater than 80 µM.
Take `CC(C)(C)c1csc(NC(=O)Cc2cn(Cc3ncccn3)c3ccc(Cl)cc23)n1`: the IC50 in experiment [1] is greater than 25 µM; in experiment [2], 23.3 µM; in experiment [3] it was greater than 25 µM.
In the case of `CC(C)(C)c1csc(NC(=O)Cc2cn(C3CCCC3)c3ccc(Cl)cc23)n1`, the figures for the IC50 in experiment [2] and in experiment [3] were 6.52 µM and greater than 25 µM, respectively.
On to `Cc1cc(C(=O)Nc2nc(C(C)(C)C)cs2)cn1Cc1ccccc1`, for which the IC50 in experiment [1] is greater than 25 µM; in experiment [2], 4.74 µM; in experiment [3], greater than 25 µM.
Turning to `CC(C)(C)c1csc(NC(=O)c2cc3ccccc3n2Cc2ccccc2)n1`, the IC50 in experiment [2] is 8.29 µM; in experiment [3], greater than 25 µM.
In the case of `CCC(C)n1cc(CC(=O)Nc2nc(C(C)(C)C)cs2)c2cc(Cl)ccc21` (stereo not given), the concentration for half-maximal inhibition (IC50) in experiment [2] was 4.38 µM; in experiment [3], greater than 25 µM.
On to `CC(C)(C)c1csc(NC(=O)c2ccc(Br)s2)n1`, for which the half-inhibitory concentration (IC50) is 23 µM in experiment [4] and greater than 80 µM in experiment [1].
With `CC(C)(C)c1csc(NC(=O)Cc2cn(Cc3ccccc3)c3ncccc23)n1`, the concentration for half-maximal inhibition (IC50) in experiment [1] was greater than 25 µM; in experiment [2], 12.2 µM; in experiment [3], greater than 25 µM.
Consider `COc1ccc2cc(C(=O)Nc3nc(C(C)(C)C)cs3)sc2c1`, for which the IC50 in experiment [4] was 1.8 µM; in experiment [1], greater than 80 µM.
Turning to `CC(C)(C)c1csc(NC(=O)c2cc3ccc(Br)cc3s2)n1`, the results for the IC50 in experiment [4] and in experiment [1] were 3.3 µM and greater than 80 µM, respectively.
On to `CC(C)(C)c1csc(NC(=O)Cc2cn(C3CCCCC3)c3ccc(Cl)cc23)n1`, for which the values for the IC50 in experiment [1], in experiment [2] and in experiment [3] were greater than 25 µM, 3.36 µM and greater than 25 µM, respectively.
In the case of `CC(C)(C)c1csc(NC(=O)Cc2cn(Cc3ccon3)c3ccc(Cl)cc23)n1`, the figures for the IC50 in experiment [1] and in experiment [2] were greater than 25 µM and 10.3 µM, respectively.
`CC(C)(C)c1csc(NC(=O)Cc2cn(Cc3ccc(C#N)cc3)c3ccc(Cl)cc23)n1`: the IC50 in experiment [1] is 23.8 µM; in experiment [2] it was 4.14 µM; in experiment [3], greater than 25 µM.
For `CC(C)(C)c1csc(NC(=O)Cc2cn(Cc3ccccc3C(N)=O)c3ccc(Cl)cc23)n1`, the IC50 in experiment [2] and in experiment [3] was greater than 25 µM in each case.
On to `CC(=O)N1CCc2sc(C(=O)Nc3nc(C(C)(C)C)cs3)cc2C1`, for which the IC50 in experiment [4] and in experiment [1] was greater than 50 µM throughout.
On to `CC(C)(C)Cc1csc(NC(=O)Cc2cn(Cc3ccccc3Cl)c3ccc(Cl)cc23)n1`, for which the IC50 in experiment [1] was greater than 25 µM; in experiment [2], 6.18 µM; in experiment [3] it was greater than 25 µM.
On to `COC(=O)c1sc(NC(=O)c2cc3c(s2)CCCC3)nc1C(C)(C)C`, for which the IC50 was 3.9 µM in experiment [4] and greater than 80 µM in experiment [1].
Regarding `CC(C)(C)c1csc(NC(=O)Cc2cn(Cc3cocn3)c3ccc(Cl)cc23)n1`, the figures for the IC50 in experiment [1] and in experiment [2] were greater than 25 µM and 22 µM, respectively.
For `COC(C)(C)c1csc(NC(=O)Cc2cn(Cc3ccccc3Cl)c3ccc(Cl)cc23)n1`, the IC50 in experiment [1] was 13.6 µM; in experiment [2], 1.04 µM; in experiment [3], greater than 25 µM.
`CC(C)(C)c1csc(NC(=O)Cc2cn(Cc3ccccc3)c3ccc(Br)cc23)n1`: the concentration for half-maximal inhibition (IC50) was 6.13 µM in experiment [2] and greater than 25 µM in experiment [3].
For the compound `CC(C)(C)c1csc(NC(=O)Cc2cn(Cc3ncco3)c3ccc(Cl)cc23)n1`, the results for the half-inhibitory concentration (IC50) in experiment [1], in experiment [2] and in experiment [3] were greater than 25 µM, 23.5 µM and greater than 25 µM, respectively.
In the case of `CC(C)(C)c1csc(NC(=O)c2ccc(-c3ccc(Cl)cc3Cl)s2)n1`, the figures for the IC50 in experiment [4] and in experiment [1] were 2.27 µM and 4.31 µM, respectively.
For `CC(C)(C)c1csc(NC(=O)Cc2cn(Cc3ccccc3)c3ccc(C(N)=O)cc23)n1`, the 50% inhibitory concentration (IC50) in experiment [2] and in experiment [3] was greater than 25 µM in each case.
For `CC(C)(C)c1csc(NC(=O)c2csc3c2CCCC3)n1`, the half-maximal inhibitory concentration (IC50) amounted to 14 µM in experiment [4] and 73 µM in experiment [1].
For `CC1(C)CCc2sc(NC(=O)c3cc4c(s3)CCCC4)nc21` the same measures were 0.4 µM and greater than 80 µM.
For `CC(C)(C)OC(=O)N1CCc2sc(C(=O)Nc3nc(C(C)(C)C)cs3)cc2C1` the same measures were 20 µM and greater than 50 µM.
`Cc1c(CC(=O)Nc2nc(C(C)(C)C)cs2)c2ccccc2n1Cc1ccccc1Cl`: the IC50 in experiment [1] is greater than 21.3 µM; in experiment [2], 1.88 µM; in experiment [3], greater than 25 µM.
For `CC(C)(C)c1csc(NC(=O)c2ccc(-c3ccccc3)s2)n1`, the figures for the IC50 in experiment [4] and in experiment [1] were 1.3 µM and 4.5 µM, respectively.
With `CC(C)Cn1cc(CC(=O)Nc2nc(C(C)(C)C)cs2)c2cc(Cl)ccc21`, the IC50 in experiment [2] is 5.38 µM; in experiment [3], greater than 25 µM.
Consider `Cc1cc(Cn2cc(CC(=O)Nc3nc(C(C)(C)C)cs3)c3cc(Cl)ccc32)ccn1`, for which the IC50 in experiment [1] is greater than 25 µM; in experiment [2], 6.1 µM; in experiment [3], 24 µM.
Regarding `CC(C)n1cc(CC(=O)Nc2nc(C(C)(C)C)cs2)c2cc(Cl)ccc21`, the IC50 was 0.587 µM in experiment [4], 4.4 µM in experiment [2], greater than 25 µM in experiment [5] and greater than 25 µM in experiment [3].
`CC(C)(C)c1csc(NC(=O)c2cc(Br)cs2)n1`: the IC50 in experiment [4] worked out at 14 µM; in experiment [1], 72 µM.
Take `CC(C)(C)c1csc(NC(=O)c2ccc(Cl)s2)n1`: the IC50 was determined as 2 µM in experiment [4] and 8 µM in experiment [1].
For `CCCc1csc(NC(=O)c2cc3c(s2)CCCC3)n1` the same measures were 2.6 µM and greater than 80 µM.
With `CC(C)(C)c1csc(NC(=O)Cc2cn(CCc3ccccc3)c3ccc(Cl)cc23)n1`, the IC50 is 4.15 µM in experiment [2] and greater than 25 µM in experiment [3].
For `COc1ccc2c(c1)c(CC(=O)Nc1nc(C(C)(C)C)cs1)cn2Cc1ccccc1` the same measures were 3.41 µM and greater than 25 µM.
In the case of `CC(=O)N(C)[C@@H](Cc1cn(Cc2ccc(F)cc2)c2ccccc12)C(=O)Nc1nc(C(C)(C)C)cs1`, the IC50 in experiment [2] and in experiment [3] was greater than 25 µM each time.
For `CC(C)(C)c1csc(NC(=O)Cc2cn(Cc3ccc(C(N)=O)cc3)c3ccc(Cl)cc23)n1`, the IC50 in experiment [1] is greater than 25 µM; in experiment [2], 8.84 µM; in experiment [3] it was greater than 25 µM.
In the case of `CC(C)(C)c1nsc(NC(=O)c2cc3c(s2)CCCC3)n1`, the figures for the IC50 in experiment [4] and in experiment [1] were 0.43 µM and 4.7 µM, respectively.
For `CC(C)(C)c1csc(NC(=O)c2cc3c([nH]2)CCCC3)n1` the same measures were 2.5 µM and greater than 80 µM.
For `CCC1CCc2sc(C(=O)Nc3nc(C(C)(C)C)cs3)cc2C1` (stereo not given), the concentration for half-maximal inhibition (IC50) in experiment [4] was 7.9 µM; in experiment [1] it was greater than 80 µM.
For `CC(C)(C)c1nc(NC(=O)c2cc3c(s2)CCCC3)sc1C#N` the same measures were greater than 80 µM and greater than 80 µM.
For `CC(C)(C)c1csc(NC(=O)c2cc3c(s2)CCCCC3)n1` the same measures were 0.58 µM and 4.3 µM.
On to `CC(c1ccccc1)n1cc(CC(=O)Nc2nc(C(C)(C)C)cs2)c2cc(Cl)ccc21` (stereo not given), for which the half-maximal inhibitory concentration (IC50) in experiment [4] was 0.217 µM; in experiment [2] it was 2.66 µM; in experiment [5], greater than 25 µM; in experiment [3], greater than 25 µM.
